In patent US20240368169A1 (priority 2021, published 2024):

Columns and labels:
[1] = target: recombinant poly(ADP-ribose) polymerase 2 (PARP2) (Homo sapiens, UniProt Q9UGN5); assay: biochemical; details: inhibition of PARP2 enzyme activity, chemiluminescence
[2] = tested on: MDA-MB-436 cells; assay: Growth inhibition assay against BRCA mutant human breast cancer MDA-MB-436 cell line (CCK-8, 7 days); type: cell-based
[3] = target: recombinant poly(ADP-ribose) polymerase 1 (PARP1) (Homo sapiens, UniProt P09874); assay: biochemical; details: inhibition of PARP1 enzyme activity, chemiluminescence
recombinant poly(ADP-ribose) polymerase 1 (PARP1), sequence (P09874 whole entry): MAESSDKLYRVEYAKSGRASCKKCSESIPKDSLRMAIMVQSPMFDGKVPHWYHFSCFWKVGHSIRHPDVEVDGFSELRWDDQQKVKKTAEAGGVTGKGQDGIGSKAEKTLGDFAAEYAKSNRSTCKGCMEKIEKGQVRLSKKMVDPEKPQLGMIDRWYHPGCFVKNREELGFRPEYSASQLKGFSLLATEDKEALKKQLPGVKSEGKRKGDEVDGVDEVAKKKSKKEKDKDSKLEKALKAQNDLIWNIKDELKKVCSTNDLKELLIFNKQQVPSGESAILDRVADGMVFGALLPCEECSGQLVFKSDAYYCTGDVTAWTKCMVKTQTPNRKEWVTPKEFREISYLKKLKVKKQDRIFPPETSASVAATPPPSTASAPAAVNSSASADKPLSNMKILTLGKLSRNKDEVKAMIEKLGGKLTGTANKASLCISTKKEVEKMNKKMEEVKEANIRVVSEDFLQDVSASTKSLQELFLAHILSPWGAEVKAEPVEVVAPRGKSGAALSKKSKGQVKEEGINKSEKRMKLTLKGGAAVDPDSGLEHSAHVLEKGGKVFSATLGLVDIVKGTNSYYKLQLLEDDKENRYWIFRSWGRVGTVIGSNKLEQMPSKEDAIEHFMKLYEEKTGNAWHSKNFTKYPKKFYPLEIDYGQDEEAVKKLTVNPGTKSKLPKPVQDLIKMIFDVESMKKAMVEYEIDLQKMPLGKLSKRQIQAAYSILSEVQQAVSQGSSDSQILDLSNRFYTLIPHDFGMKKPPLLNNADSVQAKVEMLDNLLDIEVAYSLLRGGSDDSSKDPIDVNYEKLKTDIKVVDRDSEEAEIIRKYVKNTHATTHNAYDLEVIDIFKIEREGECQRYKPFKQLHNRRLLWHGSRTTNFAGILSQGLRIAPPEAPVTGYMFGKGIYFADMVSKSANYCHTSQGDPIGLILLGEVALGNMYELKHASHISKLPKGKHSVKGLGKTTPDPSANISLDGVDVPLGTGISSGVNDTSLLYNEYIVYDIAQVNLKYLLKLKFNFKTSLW

recombinant poly(ADP-ribose) polymerase 2 (PARP2), sequence (Q9UGN5 whole entry): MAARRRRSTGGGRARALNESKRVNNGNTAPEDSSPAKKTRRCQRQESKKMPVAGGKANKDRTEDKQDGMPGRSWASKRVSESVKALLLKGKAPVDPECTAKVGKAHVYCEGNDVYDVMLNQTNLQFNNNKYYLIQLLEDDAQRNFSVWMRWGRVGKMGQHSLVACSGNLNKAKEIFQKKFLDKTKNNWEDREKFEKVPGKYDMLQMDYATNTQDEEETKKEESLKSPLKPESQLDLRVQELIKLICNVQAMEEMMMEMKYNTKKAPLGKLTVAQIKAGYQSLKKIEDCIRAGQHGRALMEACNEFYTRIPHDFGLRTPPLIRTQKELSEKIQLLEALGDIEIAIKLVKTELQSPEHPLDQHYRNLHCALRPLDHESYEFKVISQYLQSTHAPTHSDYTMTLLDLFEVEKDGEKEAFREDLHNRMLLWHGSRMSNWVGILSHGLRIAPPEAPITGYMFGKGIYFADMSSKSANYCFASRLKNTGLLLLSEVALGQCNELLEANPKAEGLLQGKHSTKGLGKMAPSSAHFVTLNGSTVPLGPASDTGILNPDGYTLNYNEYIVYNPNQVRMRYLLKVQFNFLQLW

Row | Structure (SMILES) | IC50 [1] | IC50 [2] | IC50 [3]
1 | CNC(=O)c1ccc(N2CCN(Cc3cc(F)c4c(c3)[nH]c(=O)c3cc(C)nn34)CC2)c(Cl)n1 [Example 74, 7-((4-(2-chloro-6-(methylcarbamoyl)pyridin-3-yl)piperazin-1-yl)methyl)-9-fluoro-2-methylpyrazolo[1,5-a]quinoxalin-4(5H)-one] | 186 nM | 1.58 nM | 1.52 nM
2 | CNC(=O)c1ccc(N2CCN(Cc3ccc4c(c3)[nH]c(=O)c3c(C)cnn34)CC2)c(Cl)n1 [Example 72, 7-((4-(2-chloro-6-(methylcarbamoyl)pyridin-3-yl)piperazin-1-yl)methyl)-3-methylpyrazolo[1,5-a]quinoxalin-4(5H)-one] | 110 nM | 2.09 nM | 1.12 nM
3 | CNC(=O)c1ccc(N2CCN(Cc3cc(F)c4c(c3)[nH]c(=O)c3c(C)cnn34)CC2)c(F)n1 [Example 76, 7-((4-(2-fluoro-6-(methylcarbamoyl)pyridin-3-yl)piperazin-1-yl)methyl)-9-fluoro-3-methylpyrazolo[1,5-a]quinoxalin-4(5H)-one] | 64.6 nM | 1.37 nM | 2.1 nM
4 | CNC(=O)c1ccc(N2CCN(Cc3ccc4c(c3)[nH]c(=O)c3cc(C)nn34)CC2)c(Cl)n1 [Example 70, 7-((4-(2-chloro-6-(methylcarbamoyl)pyridin-3-yl)piperazin-1-yl)methyl)-2-methylpyrazolo[1,5-a]quinoxalin-4(5H)-one] | 103 nM | 1.41 nM | 1.37 nM
5 | Cc1nc(C(=O)NC2CC2)ccc1N1CCN(Cc2cc(F)c3c(c2)[nH]c(=O)c2ccnn23)CC1 [Example 92, 7-((4-(2-methyl-6-(cyclopropylcarbamoyl)pyridin-3-yl)piperazin-1-yl)methyl)-9-fluoropyrazolo[1,5-a]quinoxalin-4(5H)-one] | 238 nM | 5.05 nM | 1.38 nM
6 | Cc1nc(C(=O)NC2CC2)ccc1N1CCN(Cc2ccc3c(c2)[nH]c(=O)c2ccnn23)CC1 [Example 62, 7-((4-(2-methyl-6-(cyclopropylcarbamoyl)pyridin-3-yl)piperazin-1-yl)methyl)pyrazolo[1,5-a]quinoxalin-4(5H)-one] | 150 nM | 3.42 nM | 0.29 nM
7 | CNC(=O)c1ccc(N2CCN(Cc3ccc4c(c3)[nH]c(=O)c3cncn34)CC2)c(F)n1 [Example 38, 7-((4-(2-fluoro-6-(methylcarbamoyl)pyridin-3-yl)piperazin-1-yl)methyl)imidazo[1,5-a]quinoxalin-4(5H)-one] | 59.9 nM | 4.06 nM | 0.3 nM
8 | CNC(=O)c1ccc(N2CCN(Cc3ccc4c([nH]c(=O)c5ccnn54)c3F)CC2)c(C)n1 [Example 94, 7-((4-(2-methyl-6-(methylcarbamoyl)pyridin-3-yl)piperazin-1-yl)methyl)-6-fluoropyrazolo[1,5-a]quinoxalin-4(5H)-one] | > 10000 nM | 5.05 nM | 2.69 nM
9 | CNC(=O)c1ccc(N2CCN(Cc3ccc4c(c3)[nH]c(=O)c3c(C)cnn34)CC2)c(F)n1 [Example 71, 7-((4-(2-fluoro-6-(methylcarbamoyl)pyridin-3-yl)piperazin-1-yl)methyl)-3-methylpyrazolo[1,5-a]quinoxalin-4(5H)-one] | 66.4 nM | 0.77 nM | 1.35 nM
10 | CNC(=O)c1ccc(N2CCN(Cc3cc(F)c4c(c3)[nH]c(=O)n3ccnc43)CC2)c(Cl)n1 [Example 119, 8-((4-(2-chloro-6-(methylcarbamoyl)pyridin-3-yl)piperazin-1-yl)methyl)-10-fluoroimidazo[1,2-c]quinazolin-5(6H)-one] | 9500 nM | 16.2 nM | 1.83 nM
11 | CNC(=O)c1ccc(N2CCN(Cc3cc(F)c4c(c3)[nH]c(=O)c3cccn34)CC2)c(C)n1 [Example 40, 7-((4-(2-methyl-6-(methylcarbamoyl)pyridin-3-yl)piperazin-1-yl)methyl)-9-fluoropyrrolo[1,2-a]quinoxalin-4(5H)-one] | 38.7 nM | 1.15 nM | 1.54 nM
12 | CNC(=O)c1ccc(N2CCN(Cc3ccc4c(c3)[nH]c(=O)c3cccn34)CC2)c(C)n1 [Example 24, 7-((4-(2-methyl-6-(methylcarbamoyl)pyridin-3-yl)piperazin-1-yl)methyl)pyrrolo[1,2-a]quinoxalin-4(5H)-one] | 31.5 nM | 0.78 nM | 0.83 nM
13 | CNC(=O)c1ccc(N2CCN(Cc3ccc4c5c(c(=O)[nH]c4c3)COC5)CC2)c(F)n1 [Example 2, 7-((4-(2-fluoro-6-(methylcarbamoyl)pyridin-3-yl)piperazin-1-yl)methyl)-3,5-dihydrofuro[3,4-c]quinolin-4(1H)-one] | 128 nM | 2.65 nM | 1.91 nM
14 | CNC(=O)c1ccc(N2CCN(Cc3ccc4c(c3)[nH]c(=O)c3c(Cl)cnn34)CC2)c(C)n1 [Example 98, 7-((4-(2-methyl-6-(methylcarbamoyl)pyridin-3-yl)piperazin-1-yl)methyl)-3-chloropyrazolo[1,5-a]quinoxalin-4(5H)-one] | 41 nM | 0.62 nM | 1.91 nM
15 | CNC(=O)c1ccc(N2CCN(Cc3ccc4c([nH]c(=O)c5ccnn54)c3F)CC2)c(F)n1 [Example 95, 7-((4-(2-fluoro-6-(methylcarbamoyl)pyridin-3-yl)piperazin-1-yl)methyl)-6-fluoropyrazolo[1,5-a]quinoxalin-4(5H)-one] | 886 nM | 6.78 nM | 1.82 nM
16 | CNC(=O)c1ccc(N2CCN(Cc3cc(F)c4c(c3)[nH]c(=O)c3c(C)cnn34)CC2)c(Cl)n1 [Example 77, 7-((4-(2-chloro-6-(methylcarbamoyl)pyridin-3-yl)piperazin-1-yl)methyl)-9-fluoro-3-methylpyrazolo[1,5-a]quinoxalin-4(5H)-one] | 241 nM | 2.39 nM | 1.51 nM
17 | Cc1nc(C(N)=O)ccc1N1CCN(Cc2cc(F)c3c(c2)[nH]c(=O)c2ccnn23)CC1 [Example 89, 7-((4-(2-methyl-6-(carbamoyl)pyridin-3-yl)piperazin-1-yl)methyl)-9-fluoropyrazolo[1,5-a]quinoxalin-4(5H)-one] | 861 nM | 2.22 nM | 1.72 nM
18 | CNC(=O)c1ccc(N2CCN(Cc3ccc4c(c3)[nH]c(=O)c3cccn34)CC2)c(Cl)n1 [Example 35, 7-((4-(2-chloro-6-(methylcarbamoyl)pyridin-3-yl)piperazin-1-yl)methyl)pyrrolo[1,2-a]quinoxalin-4(5H)-one] | 26.3 nM | 0.39 nM | 0.81 nM
19 | Cc1nc(C(=O)NCO)ccc1N1CCN(Cc2cc(F)c3c(c2)[nH]c(=O)c2ccnn23)CC1 [Example 117, 7-((4-(2-methyl-6-(N-(hydroxymethyl)carbamoyl)pyridin-3-yl)piperazin-1-yl)methyl)-9-fluoropyrazolo[1,5-a]quinoxalin-4(5H)-one] | 645 nM | 4.74 nM | 0.91 nM
20 | CNC(=O)c1ccc(N2CCN(Cc3ccc4c(c3)[nH]c(=O)c3ccnn34)CC2)c(Cl)n1 [Example 37, 7-((4-(2-chloro-6-(methylcarbamoyl)pyridin-3-yl)piperazin-1-yl)methyl)pyrazolo[1,5-a]quinoxalin-4(5H)-one] | 46.5 nM | 1.07 nM | 0.47 nM
